Experimental data taken from patent US20230041563A1, “N-(1,3,4-OXADIAZOL-2-YL)ARYLCARBOXAMIDES OR SALTS THEREOF, PREPARATION METHODS, HERBICIDAL COMPOSITIONS AND USES THEREOF” (priority 2018, published 2023).

Columns and labels:
Assay in all cases: Weeding effect in post-emergence stage (greenhouse pot spray)
Type in all cases: in vivo
Echinochloa crusgalli = tested on: Echinochloa crusgalli
Excerpt: (§1) The activity level criteria for plant damage (i.e., growth control rate) are as follows:
(§2) The above growth control rates are fresh weight control rates.
(§3) Experiment on weeding effect in post-emergence stage: monocotyledonous and dicotyledonous weed seeds (Descurainia sophia, Capsella bursa-pastoris, Abutilon theophrasti, Galium aparine, Stellaria media, Lithospermum arvense, rorippa indica, Alopecurus aequalis, Beckmannia syzigachne, Sclerochloa dura, Phleum paniculatum, Bromus japonicus, Aegilops tauschii, Phalaris arundinacea, Amaranthus retroflexus, Chenopodiaceae, Commelina communis, Sonchus arvensis, convolvulus arvensis, Cirsium setosum, Solanum nigrum, Acalypha australis, Digitaria sanguinalis, Echinochloa crusgalli, Setaria viridis, Setaria glauca, Leptochloa chinensis, Monochoria vaginalis, Sagittaria trifolia, Scirpus juncoides, Cyperus rotundus, Cyperus iria, Cyperus difformis, Fimbristylis, Portulaca oleracea, Xanthium sibiricum, Pharbitis nil) and major crop seeds (wheat, corn, rice, soybean, cotton, oilseed rape, millet, sorghum, potato, sesame, ricinus) were placed in plastic pots filled with soil, then covered with 0.5-2 cm of soil, allowed to grow in a good greenhouse environment. After 2 weeks of sowing, the test plants were treated in the 2 to 3 leaf stage. The tested compounds of the present invention were respectively dissolved in acetone, then added with Tween 80 and 1.5 liter/ha of emulsifiable concentrate of methyl oleate as synergist, diluted with a certain amount of water to obtain a solution with a certain concentration, and sprayed with a spray tower onto the plants. After the application, the plants were cultured for 3 weeks in the greenhouse, and then the experimental results of the weeding were counted. […]

Setaria viridis = tested on: Setaria viridis
Excerpt: as §1, §2, §3

Digitaria sanguinalis = tested on: Digitaria sanguinalis
Excerpt: as §1, §2, §3

How did the “Echinochloa crusgali (activity level)” value (Echinochloa crusgalli; Table 3, dose 500 g a.i./ha) turn out when `Cc1nnc(NC(=O)c2ccc(C(F)(F)F)c([S@@+]([O-])CCC(F)(C(F)(F)F)C(F)(F)F)c2F)o1` [1-413 (R-configuration)] was run?
The value was 5 (Level 5: growth control rate is above 85%).

What about the “Setaria viridis (activity level)” value (Setaria viridis; Table 3, dose 500 g a.i./ha) of the same molecule?
The value was 5 (Level 5: growth control rate is above 85%).

What about the “Digitaria sanguinahs (activity level)” value (Digitaria sanguinalis; Table 3, dose 500 g a.i./ha) of the same molecule?
The value was 5 (Level 5: growth control rate is above 85%).

Which results are given for `Cc1nnc(NC(=O)c2ccc(C(F)(F)F)c([S@@+]([O-])CCC#N)c2F)o1` [1-427 (R-configuration)]?
Echinochloa crusgali (activity level) (Echinochloa crusgalli; Table 3, dose 500 g a.i./ha): 5 (Level 5: growth control rate is above 85%); Setaria viridis (activity level) (Setaria viridis; Table 3, dose 500 g a.i./ha): 5 (Level 5: growth control rate is above 85%); Digitaria sanguinahs (activity level) (Digitaria sanguinalis; Table 3, dose 500 g a.i./ha): 5 (Level 5: growth control rate is above 85%)

Which “Echinochloa crusgali (activity level)” value (Echinochloa crusgalli; Table 3, dose 500 g a.i./ha) does the source give for `Cc1nnc(NC(=O)c2ccc(C(F)(F)F)c([S@@+]([O-])CCCC#N)c2F)o1` [1-428 (R-configuration)] here?
Its value is 5 (Level 5: growth control rate is above 85%).

What about the “Setaria viridis (activity level)” value (Setaria viridis; Table 3, dose 500 g a.i./ha) of the same molecule?
Its value is 5 (Level 5: growth control rate is above 85%).

And the “Digitaria sanguinahs (activity level)” value (Digitaria sanguinalis; Table 3, dose 500 g a.i./ha)?
The value was 5 (Level 5: growth control rate is above 85%).

Which results are given for `Cc1nnc(NC(=O)c2ccc(C(F)(F)F)c([S@@+]([O-])CCO)c2F)o1` [1-429 (R-configuration)]?
Echinochloa crusgali (activity level) (Echinochloa crusgalli; Table 3, dose 500 g a.i./ha): 5 (Level 5: growth control rate is above 85%); Setaria viridis (activity level) (Setaria viridis; Table 3, dose 500 g a.i./ha): 5 (Level 5: growth control rate is above 85%); Digitaria sanguinahs (activity level) (Digitaria sanguinalis; Table 3, dose 500 g a.i./ha): 5 (Level 5: growth control rate is above 85%)

With `Cc1nnc(NC(=O)c2ccc(C(F)(F)F)c([S@+]([O-])CCCO)c2F)o1` [1-430 (R-configuration)] as the molecule, how does the “Echinochloa crusgali (activity level)” value (Echinochloa crusgalli; Table 3, dose 500 g a.i./ha) read?
Its value is 5 (Level 5: growth control rate is above 85%).

And the “Setaria viridis (activity level)” value (Setaria viridis; Table 3, dose 500 g a.i./ha)?
Its value is 5 (Level 5: growth control rate is above 85%).

And the “Digitaria sanguinahs (activity level)” value (Digitaria sanguinalis; Table 3, dose 500 g a.i./ha)?
The value was 5 (Level 5: growth control rate is above 85%).

How did the “Echinochloa crusgali (activity level)” value (Echinochloa crusgalli; Table 3, dose 500 g a.i./ha) turn out when `Cc1nnc(NC(=O)c2ccc(C(F)(F)F)c([S@@+]([O-])CC(C)O)c2F)o1` (stereo partly drawn) [1-431 (R-configuration)] was run?
Its value is 5 (Level 5: growth control rate is above 85%).

And the “Setaria viridis (activity level)” value (Setaria viridis; Table 3, dose 500 g a.i./ha)?
Its value is 5 (Level 5: growth control rate is above 85%).

And the “Digitaria sanguinahs (activity level)” value (Digitaria sanguinalis; Table 3, dose 500 g a.i./ha)?
Its value is 5 (Level 5: growth control rate is above 85%).

For `Cc1nnc(NC(=O)c2ccc(C(F)(F)F)c([S@@+]([O-])CCCN)c2F)o1` [1-432 (R-configuration)], which “Echinochloa crusgali (activity level)” value (Echinochloa crusgalli; Table 3, dose 500 g a.i./ha) is on record?
The value was 5 (Level 5: growth control rate is above 85%).

What about the “Setaria viridis (activity level)” value (Setaria viridis; Table 3, dose 500 g a.i./ha) of the same molecule?
The value was 5 (Level 5: growth control rate is above 85%).

What about the “Digitaria sanguinahs (activity level)” value (Digitaria sanguinalis; Table 3, dose 500 g a.i./ha) of the same molecule?
The value was 5 (Level 5: growth control rate is above 85%).

How did the “Echinochloa crusgali (activity level)” value (Echinochloa crusgalli; Table 3, dose 500 g a.i./ha) turn out when `CCOC[S+]([O-])c1c(C(F)(F)F)ccc(C(=O)Nc2nnc(C)o2)c1F` (stereo not drawn) [1-444 (R-configuration)] was run?
Its value is 5 (Level 5: growth control rate is above 85%).

And the “Setaria viridis (activity level)” value (Setaria viridis; Table 3, dose 500 g a.i./ha)?
The value was 5 (Level 5: growth control rate is above 85%).

What about the “Digitaria sanguinahs (activity level)” value (Digitaria sanguinalis; Table 3, dose 500 g a.i./ha) of the same molecule?
Its value is 5 (Level 5: growth control rate is above 85%).

Which results are given for `CCOCC[S@+]([O-])c1c(C(F)(F)F)ccc(C(=O)Nc2nnc(C)o2)c1F` [1-446 (R-configuration)]?
Echinochloa crusgali (activity level) (Echinochloa crusgalli; Table 3, dose 500 g a.i./ha): 5 (Level 5: growth control rate is above 85%); Setaria viridis (activity level) (Setaria viridis; Table 3, dose 500 g a.i./ha): 5 (Level 5: growth control rate is above 85%); Digitaria sanguinahs (activity level) (Digitaria sanguinalis; Table 3, dose 500 g a.i./ha): 5 (Level 5: growth control rate is above 85%)

How did the “Echinochloa crusgali (activity level)” value (Echinochloa crusgalli; Table 3, dose 500 g a.i./ha) turn out when `COC(C)C[S@+]([O-])c1c(C(F)(F)F)ccc(C(=O)Nc2nnc(C)o2)c1F` (stereo partly drawn) [1-447 (R-configuration)] was run?
Its value is 5 (Level 5: growth control rate is above 85%).

And the “Setaria viridis (activity level)” value (Setaria viridis; Table 3, dose 500 g a.i./ha)?
The value was 5 (Level 5: growth control rate is above 85%).

And the “Digitaria sanguinahs (activity level)” value (Digitaria sanguinalis; Table 3, dose 500 g a.i./ha)?
The value was 5 (Level 5: growth control rate is above 85%).

What does the source list for `COCCC[S@@+]([O-])c1c(C(F)(F)F)ccc(C(=O)Nc2nnc(C)o2)c1F` [1-448 (R-configuration)]?
Echinochloa crusgali (activity level) (Echinochloa crusgalli; Table 3, dose 500 g a.i./ha): 5 (Level 5: growth control rate is above 85%); Setaria viridis (activity level) (Setaria viridis; Table 3, dose 500 g a.i./ha): 5 (Level 5: growth control rate is above 85%); Digitaria sanguinahs (activity level) (Digitaria sanguinalis; Table 3, dose 500 g a.i./ha): 5 (Level 5: growth control rate is above 85%)

How did the “Echinochloa crusgali (activity level)” value (Echinochloa crusgalli; Table 3, dose 500 g a.i./ha) turn out when `Cc1nnc(NC(=O)c2ccc(C(F)(F)F)c([S@@+]([O-])CCOC(F)F)c2F)o1` [1-523 (R-configuration)] was run?
The value was 5 (Level 5: growth control rate is above 85%).

And the “Setaria viridis (activity level)” value (Setaria viridis; Table 3, dose 500 g a.i./ha)?
Its value is 5 (Level 5: growth control rate is above 85%).

What about the “Digitaria sanguinahs (activity level)” value (Digitaria sanguinalis; Table 3, dose 500 g a.i./ha) of the same molecule?
The value was 5 (Level 5: growth control rate is above 85%).

What does the source list for `CC(C)=NOCC[S@@+]([O-])c1c(C(F)(F)F)ccc(C(=O)Nc2nnc(C)o2)c1F` [1-525 (R-configuration)]?
Echinochloa crusgali (activity level) (Echinochloa crusgalli; Table 3, dose 500 g a.i./ha): 5 (Level 5: growth control rate is above 85%); Setaria viridis (activity level) (Setaria viridis; Table 3, dose 500 g a.i./ha): 5 (Level 5: growth control rate is above 85%); Digitaria sanguinahs (activity level) (Digitaria sanguinalis; Table 3, dose 500 g a.i./ha): 5 (Level 5: growth control rate is above 85%)

How did the “Echinochloa crusgali (activity level)” value (Echinochloa crusgalli; Table 3, dose 125 g a.i./ha) turn out when `CC(=O)C[S@@+]([O-])c1c(C(F)(F)F)ccc(C(=O)Nc2nnc(C)o2)c1F` [1-552 (R-configuration)] was run?
The value was 5 (Level 5: growth control rate is above 85%).

And the “Setaria viridis (activity level)” value (Setaria viridis; Table 3, dose 125 g a.i./ha)?
Its value is 5 (Level 5: growth control rate is above 85%).

What about the “Digitaria sanguinahs (activity level)” value (Digitaria sanguinalis; Table 3, dose 125 g a.i./ha) of the same molecule?
Its value is 5 (Level 5: growth control rate is above 85%).

`CCC[S@+]([O-])c1c(C(F)(F)F)ccc(C(=O)Nc2nnc(CC)o2)c1F` [2-8 (R-configuration)] was tested. Which “Echinochloa crusgali (activity level)” value (Echinochloa crusgalli; Table 3, dose 250 g a.i./ha) did it give?
The value was 5 (Level 5: growth control rate is above 85%).

What about the “Setaria viridis (activity level)” value (Setaria viridis; Table 3, dose 250 g a.i./ha) of the same molecule?
Its value is 5 (Level 5: growth control rate is above 85%).

What about the “Digitaria sanguinahs (activity level)” value (Digitaria sanguinalis; Table 3, dose 250 g a.i./ha) of the same molecule?
Its value is 5 (Level 5: growth control rate is above 85%).

`CC[S@+]([O-])c1c(C(F)(F)F)ccc(C(=O)Nc2nnco2)c1F` [3-5 (R-configuration)] was tested. Which “Echinochloa crusgali (activity level)” value (Echinochloa crusgalli; Table 3, dose 120 g a.i./ha) did it give?
Its value is 5 (Level 5: growth control rate is above 85%).

What about the “Setaria viridis (activity level)” value (Setaria viridis; Table 3, dose 120 g a.i./ha) of the same molecule?
The value was 5 (Level 5: growth control rate is above 85%).

What about the “Digitaria sanguinahs (activity level)” value (Digitaria sanguinalis; Table 3, dose 120 g a.i./ha) of the same molecule?
Its value is 5 (Level 5: growth control rate is above 85%).

Which “Echinochloa crusgali (activity level)” value (Echinochloa crusgalli; Table 3, dose 60 g a.i./ha) does the source give for `CCC[S@@+]([O-])c1c(C(F)(F)F)ccc(C(=O)Nc2nnco2)c1F` [3-8 (R-configuration)] here?
The value was 5 (Level 5: growth control rate is above 85%).

What about the “Setaria viridis (activity level)” value (Setaria viridis; Table 3, dose 60 g a.i./ha) of the same molecule?
The value was 5 (Level 5: growth control rate is above 85%).

And the “Digitaria sanguinahs (activity level)” value (Digitaria sanguinalis; Table 3, dose 60 g a.i./ha)?
Its value is 5 (Level 5: growth control rate is above 85%).

For `CC(C)[S@+]([O-])c1c(C(F)(F)F)ccc(C(=O)Nc2nnco2)c1F` [3-11 (R-configuration)], which “Echinochloa crusgali (activity level)” value (Echinochloa crusgalli; Table 3, dose 125 g a.i./ha) is on record?
The value was 5 (Level 5: growth control rate is above 85%).

And the “Setaria viridis (activity level)” value (Setaria viridis; Table 3, dose 125 g a.i./ha)?
Its value is 5 (Level 5: growth control rate is above 85%).

And the “Digitaria sanguinahs (activity level)” value (Digitaria sanguinalis; Table 3, dose 125 g a.i./ha)?
The value was 5 (Level 5: growth control rate is above 85%).

Which results are given for `CCCC[S@+]([O-])c1c(C(F)(F)F)ccc(C(=O)Nc2nnco2)c1F` [3-14 (R-configuration)]?
Echinochloa crusgali (activity level) (Echinochloa crusgalli; Table 3, dose 60 g a.i./ha): 5 (Level 5: growth control rate is above 85%); Setaria viridis (activity level) (Setaria viridis; Table 3, dose 60 g a.i./ha): 5 (Level 5: growth control rate is above 85%); Digitaria sanguinahs (activity level) (Digitaria sanguinalis; Table 3, dose 60 g a.i./ha): 5 (Level 5: growth control rate is above 85%)

Which results are given for `CC(C)C[S@@+]([O-])c1c(C(F)(F)F)ccc(C(=O)Nc2nnco2)c1F` [3-20 (R-configuration)]?
Echinochloa crusgali (activity level) (Echinochloa crusgalli; Table 3, dose 125 g a.i./ha): 5 (Level 5: growth control rate is above 85%); Setaria viridis (activity level) (Setaria viridis; Table 3, dose 125 g a.i./ha): 5 (Level 5: growth control rate is above 85%); Digitaria sanguinahs (activity level) (Digitaria sanguinalis; Table 3, dose 125 g a.i./ha): 5 (Level 5: growth control rate is above 85%)

How did the “Echinochloa crusgali (activity level)” value (Echinochloa crusgalli; Table 3, dose 125 g a.i./ha) turn out when `O=C(Nc1nnco1)c1ccc(C(F)(F)F)c([S@@+]([O-])CCC(F)(F)F)c1F` [3-52 (R-configuration)] was run?
The value was 5 (Level 5: growth control rate is above 85%).

And the “Setaria viridis (activity level)” value (Setaria viridis; Table 3, dose 125 g a.i./ha)?
Its value is 5 (Level 5: growth control rate is above 85%).

What about the “Digitaria sanguinahs (activity level)” value (Digitaria sanguinalis; Table 3, dose 125 g a.i./ha) of the same molecule?
The value was 5 (Level 5: growth control rate is above 85%).
